Data published in publication PMC7370100, “In Vitro Assessment of the Genotoxic Hazard of Novel Hydroxamic Acid- and Benzamide-Type Histone Deacetylase Inhibitors (HDACi)” (International Journal of Molecular Sciences, 2020).

How the values were obtained:
V79 cells [1] = test: DNA damage response (DDR) activation by Western blot; format: cell-based, hamster; conditions: for activation of DDR factors (γH2AX, p-p53, p-Chk1, p-Chk2, p-Kap1 protein levels): V79, Western blot, in words; for DDR Activation: summary grade, V79; on DDR Activation: key: −: no effect; 0: weak effect; +: moderate effect; ++: strong effect; +++: very strong effect as compared to untreated controls
Description: (§1) The activation of the DDR was investigated by Western blot analysis. To this end, total cell extracts were obtained by lysing an equal number of cells in Roti®-Load buffer (Carl Roth GmbH (Karlsruhe, Germany)) (5 min, RT). After sonication (EpiShear™ Probe sonicator, Active Motif, La Hulpe, Belgium), proteins were denatured by heating (5 min, 95 °C) and separated by SDS-PAGE (6% or 12.5% gel). Proteins were transferred onto a nitrocellulose membrane (GE Healthcare, Little Chalfont, UK) via the Protean Mini Cell System (BioRad (München, Germany)). The membrane was blocked with 5% non-fat milk in TBS/0.1% Tween 20 (MERCK, Darmstadt, Germany) (2 h, RT) and incubated with the corresponding primary antibody (1:1000, overnight, 4 °C). After washing with TBS/0.1% Tween 20, the secondary (peroxidase-conjugated) antibody was added (1:2000, 2 h, RT). The Fusion FX7 imaging system (PeqLab, Erlangen, Germany) was used for visualization of the bound antibodies. The following primary antibodies were used: Anti-Ser15 phosphorylated protein 53 (p-p53), anti-Talin-1, anti-Ser 345 checkpoint kinase 1 (p-Chk1), anti-cleaved caspase 3 and 7 (Cell Signaling, Beverly, MA, USA), anti-Ser824 phosphorylated Krüppel-associated box domain (KRAB)-associated protein-1 (p-Kap1), anti-Ser1981 phosphorylated ataxia telangiectasia mutated (pATM) and anti-Thr68 phosphorylated checkpoint kinase-2 (p-Chk2) (both Abcam, Cambridge, MA, USA), anti-Ser139 phosphorylated histone H2AX (γH2AX, Millipore, Billerica, MA, USA), and anti-β-actin (Santa Cruz, CA, USA). As secondary antibodies, horseradish peroxidase-conjugated secondary antibodies goat anti-mouse IgG and mouse anti-rabbit IgG (Rockland, Limerick, PA, USA) (2 h, RT) were used.

V79 cells [2] = test: Cell cycle distribution / SubG1 fraction by flow cytometry; format: cell-based, hamster; conditions: 24 h, in words
Description: For flow cytometry-based analysis of cell cycle distribution, cells were trypsinized and combined with floating cells present in the medium. Following fixation with ice-cold ethanol (80%) (≥1 h, −20 °C), cells were pelleted (1000× g, 10 min, 4 °C) and suspended in phosphate-buffered saline (PBS). DNase-free RNase A (Serva, Heidelberg, Germany) was added (2 μg/mL, 1 h at RT). Nuclei were stained with propidium iodide (36.7 μg/mL Sigma, Steinheim, Germany) and analysis was performed using BD Accuri™C6 flow cytometer (BD, Franklin Lakes, NJ, USA).

V79 cells [3] = test: Caspase-3/-7 cleavage by Western blot (apoptosis); format: cell-based, hamster; conditions: for activation of caspase-3 and -7: 10 µM, 24 h, V79, in words; for Apoptosis: summary grade, calculated on the basis of caspase-3,-7 cleavage and SubG1 population, V79; on apoptosis: key: −: no effect; 0: weak effect; +: moderate effect; ++: strong effect; +++: very strong effect as compared to untreated controls
Description: as §1

XPA-deficient cells = test: Viability of XPA-deficient versus proficient fibroblasts (Alamar blue); format: cell-based, human; conditions: 72 h, in words
Description: Figure 7 Sensitivity of nucleotide excision repair (NER) defective cells to hydroxamic acid- and benzamide-type HDACi. Viability of wild-type human fibroblasts and fibroblasts defective in nucleotide excision repair (NER) pathways (i.e., global genome nucleotide excision repair (GG-NER) or transcription-coupled nucleotide excision repair (TC-NER)) due to a defect in Xeroderma pigmentosum group A protein (XPA) or Cockayne syndrome protein B (CSB), respectively, was analyzed 72 h after the addition of HDACi by the Alamar blue assay, as described in Methods. The DNA intrastrand cross-linking agent cisplatin was used for control. Data shown are the mean ± SD from three independent experiments (n = 3) each performed in triplicate (N = 3); ns, not significant; *, p ≤ 0.05; **, p ≤ 0.01 as compared to the corresponding untreated controls (Student´s t-test).
V79 hamster lung cells, which are recommended in the OECD toxicology guidelines for hazard identification (i.e., cytotoxicity and genotoxicity) of chemicals, were purchased from the German Collection of Microorganisms and Cell Cultures (DSMZ, Braunschweig, Germany). They were cultured in Dulbecco´s modified Eagle medium and Ham´s F12 medium (DMEM/F12) (PromoCell, Heidelberg, Germany) containing 10% fetal calf serum at 37 °C in a humidified atmosphere containing 5% CO2. VC8 hamster cells were defective in DNA double-strand break (DSB) repair by homologous recombination (HR) due to the lack of functional BRCA2 protein [69, 70]. VC8 cells were provided by B. Kaina (Institute of Toxicology, Mainz, Germany). Nucleotide excision repair defective XPA and CSB deficient cells were also provided by B. Kaina and were described before. […]
Cell viability was determined using the Alamar blue assay, which reflected the mitochondrial activity. […] Afterwards, the Neutral red that was taken up by the cells was extracted (50% ethanol/1% of acetic acid, 15 min at room temperature (RT)) and absorbance (540 nm) was measured. […] Approximate IC50 (~IC50, see Supplementary Table S1) were calculated from the corresponding dose-response curves.

V79 cells [4] = test: Alkaline comet assay (DNA strand breaks); conditions: for Mean (% DNA in tail) / DNA strand breaks (comet assay): 24 h; for Mean (% DNA in tail) / Comet Assay: V79; for Mean (% DNA in tail): untreated control 16.8; for DNA strand breaks (comet assay): V79, in words; for Comet Assay: summary grade
Description: The formation of DNA strand breaks and apurinic/apyrimidinic sites was monitored employing the alkaline comet assay [87], which is part of the OECD guideline of in vivo genotoxicity testings and detects DNA strand breaks (DNA single- and double-strand breaks) and alkali-labile sites [87]. Briefly, after aspiration of the medium and trypsinization, cells were mixed with 0.5% melting agarose and transferred onto agarose-coated (1.5%) slides. After lysis in alkaline buffer (pH 10) (1 h, 4 °C, light protection) and unwinding of the DNA in precooled lysis buffer (pH >13) (20 min, 4 °C, light protection), electrophoresis was performed (electric current: 300 mA constant; 1 V/cm). After neutralization in salt buffer (pH 7.5) and staining with propidium iodide solution (50 µg/mL), comets were evaluated by fluorescence microscopy. Quantification of migrated DNA was performed with TriTek Comet Score™ software Version 1.5, evaluating ≥50 cells per condition (blinded assessment). […] Fold increase in tail intensities of treated cells were calculated by relating the % DNA in tail of treated cells to that of the corresponding untreated controls, which were set to 1.0 (see Figure 2B).

Row | Mean (% DNA in tail) (V79 cells [4]; 2 µM) | Mean (% DNA in tail) (V79 cells [4]; 10 µM) | Mean (% DNA in tail) (V79 cells [4]; 50 µM) | Comet Assay (V79 cells [4]) | Mean (% DNA in tail) (V79 cells [4]; 100 µM) | SMILES | activation of DDR factors (γH2AX, p-p53, p-Chk1, p-Chk2, p-Kap1 protein levels) (V79 cells [1]) | DDR Activation (V79 cells [1]) | percentage of V79 cells in the SubG1 fraction (V79 cells [2]) | activation of caspase-3 and -7 (V79 cells [3]) | Apoptosis (V79 cells [3]) | sensitivity of XPA-deficient versus XPA proficient cells (XPA-deficient cells) | DNA strand breaks (comet assay) (V79 cells [4])
1 | 14.0 | 8.0 | 13.2 | − |  | O=C(CCCCCCC(=O)Nc1ccccc1)NO [Vorinostat, vorinostat, reference compound] | substantial increase in γH2AX levels but no, or only a minor, increase in p-p53 and p-Chk1/p-Chk2 levels | + | moderate increase of the percentage of V79 cells present in the SubG1 fraction | activation of caspase-3 and -7 | ++ | XPA-deficient cells are even more resistant | did not cause a significant rise in DNA damage
2 |  | 34.5 | 37.8 | − | 34.9 | Nc1ccccc1NC(=O)c1ccc(CNC(=O)OCc2cccnc2)cc1 [Entinostat, entinostat, reference compound] | substantial increase in γH2AX levels but no, or only a minor, increase in p-p53 and p-Chk1/p-Chk2 levels | + | did not increase the percentage of cells present in the SubG1 fraction | only activated caspase-7 but not caspase-3 | 0 |  | only promoted the formation of DNA strand breaks
3 |  | 34.0 | 48.1 | + | 35.5 | Nc1ccc(F)cc1NC(=O)c1ccc(CONC(=O)C=Cc2cccnc2)cc1 [MPK77] | failed to provoke a clear increase in γH2AX protein level | − | neither induced cell death as reflected by an increase in the SubG1 population | nor did they activate the executor caspases-3 and -7 | − |  | significant increase in DNA strand breaks at all concentrations tested
4 | 15.1 | 6.9 | 17.3 | − |  | CN(C)c1ccc(C(=O)N(CC(=O)NCc2ccccc2)Cc2ccc(C(=O)NO)cc2)cc1 [DDK137] | substantial increase in γH2AX levels but no, or only a minor, increase in p-p53 and p-Chk1/p-Chk2 levels | + |  | activation of caspase-3 and -7 | + | XPA-deficient cells are even more resistant | did not cause a significant rise in DNA damage
